From patent US4746675A, “External pharmaceutical composition” (Teijin Limited, priority 1983, dated 1988)

Key:
[1] = concentration of indomethacin in rat blood after application of ointment to the back; details: versus the comparative ointments
Experimental: An ointment was prepared from 1 part by weight of indomethacin, 10 parts by weight of compound (168) and 89 parts by weight of a hydrophilic ointment (composed of 250 parts of white Vaseline, 220 parts by weight of stearyl alcohol, 120 parts by weight of propylene glycol, 15 parts by weight of sodium laurylsulfate, 0.25 part by weight of ethyl p-hydroxybenzoate, 0.15 part by weight of propyl p-hydroxybenzoate and a small amount of purified water). The back of a rat (body weight about 250 g) was cut by an electric hair-clipper, and 100 mg of the resulting ointment was applied by a finger to a circular unhaired portion, 4 cm in diameter. The blood was drawn from the tail of the rat periodically, and the concentration of indomethacin in the blood was determined periodically by high-performance liquid chromatography.
Various ointments were prepared from 1 part by weight of indomethacin, 10 parts of each of various penetration enhancers shown in Table 2 and the hydrophilic ointment, and tested as in Example 1.

carrageenan edema = carrageenan edema inhibiting effect of betamethasone valerate ointments; assay type: in vivo, rat; details: for Percentage inhibition based on the control: 0.15% betamethasone valerate, 9.85% Compound (168) or none; for Percentage inhibition vs. control: Table 5, betamethasone valerate ointment with penetration enhancer
How it was run: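 Rat carrageenan paw edema: 0.1 ml of 1% carrageenan injected into the right hind paw of 150–175 g rats. Ointment containing 0.15 part betamethasone valerate plus penetration enhancer, 100 mg, applied to the inflamed site at 0.5, 1 and 2 h. Paw volume measured by mercury displacement at 0, 3, 5 and 6 h.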

serum calcium level [2] = assay: serum calcium after intrarectal administration of calcitonin composition to rats; assay type: in vivo, rat; details: versus the comparative suppository
From the text: Cacao butter (93 parts by weight) and 7 parts by weight of compound (168) or compound (173) were uniformly mixed, and (Asu^1.7)-eel calcitonin was gradually added and mixed to form a uniform composition. The composition was slightly warmed, and placed into a suppository container to form a suppository for rats having a diameter of about 3 mm and a length of about 6 mm. This suppository contained 0.7 MRC unit of calcitonin. The suppository was intrarectally administered to a rat, and the concentration of calcium in the blood serum after administration was measured by using a calcium measuring kit (made by Iatoron Co.).
Various […] were prepared from cacao butter, the various penetration enhancers shown in Table 12 and [Asu^1.7 ]-eel calcitonin, and tested in the same way as in Example 85.

blood glucose level = assay: blood glucose after intrarectal administration of hog insulin suppository to rabbits; assay type: in vivo, rabbit; details: for Percent decrease of the blood glucose level from that before the administration: hog insulin 9.6 units, intrarectal, rabbit; for absorption of insulin from the suppository: versus the comparative suppository
Experimental: Sixty parts by weight of fractionated coconut oil and 10 parts by weight of compound (168) or compound (173) were uniformly mixed, and then hog insulin was gradually added to form a uniform dispersion. The dispersion was filled in a gelatin capsule for suppositories to form a gelatin capsular suppository. These suppository contained 9.6 units of insulin. The suppository was intrarectally administered to a rabbit, and the blood glucose level after administration was measured by the glucose oxidase method.

[3] = concentration of cephalothin sodium in blood after intrarectal administration of suppository; assay type: in vivo, Beagle dog; details: versus the comparative suppository
Experimental: Eighty parts by weight of cacoa butter, 10 parts by weight of compound (168) and 10 parts by weight of cephalothin sodium were uniformly mixed and then slightly warmed. The mixture was filled in a suppository container to form a suppository containing 1 g of the mixture. The suppository was administered intrarectally to a Beagle dog, and the concentration of cephalothin sodium in the blood after administration was measured by the cup method.

serum calcium level [4] = assay: serum calcium after nasal administration of calcitonin nasal drop to rabbits; assay type: in vivo, New Zealand white male rabbit; details: for Percent decrease of the serum calcium level from before administration: [Asu^1.7]-eel calcitonin nasal drop, 15 units/50 μl, rabbit
Experimental: This nasal drop contained 15 units/50 μl of calcitonin. Fifty microliters of the nasal drop was administered to the nasal cavity of a New Zealand white male rabbit, and the concentration of calcium in the serum after administration was measured by using a calcium measuring kit (made by Iatron Co.).

[5] = tested on: eye (cornea, iris, conjunctiva); assay: primary eye irritation (Draize) in rabbits; assay type: in vivo, white native male rabbits; details: 2.4% soln, average of three rabbits

## CCCCCCCC/C=C\CCCCCCCC(=O)OCC(O)COC(=O)[C@@H]1CCC(=O)N1 (stereo partly drawn) [Compound (168), 2-hydroxy-3-oleoyloxy-1-pyroglutamyloxypropane]
[1]
  absorption of indomethacin from the ointment: better
Carrageenan edema; 3 hrs
  Percentage inhibition based on the control: 19.7%
Carrageenan edema; 5 hrs
  Percentage inhibition based on the control: 36.8%
Carrageenan edema; 6 hrs
  Percentage inhibition based on the control: 39.2%
Serum calcium level [2]
  absorption of calcitonin from the suppository: better
Blood glucose level; 30 min
  Percent decrease of the blood glucose level from that before the administration: 32.8%
Blood glucose level; 1 hr
  Percent decrease of the blood glucose level from that before the administration: 36.3%
Blood glucose level; 2 hrs
  Percent decrease of the blood glucose level from that before the administration: 19.1%
Blood glucose level; 3 hrs
  Percent decrease of the blood glucose level from that before the administration: 5.2%
Blood glucose level
  absorption of insulin from the suppository: better
[3]
  absorption of cephalothin sodium from the suppository: better
Serum calcium level [4]; 1 hr
  Percent decrease of the serum calcium level from before administration: 6.1%
Serum calcium level [4]; 2 hrs
  Percent decrease of the serum calcium level from before administration: 4.0%
Serum calcium level [4]; 3 hrs
  Percent decrease of the serum calcium level from before administration: 1.8%
Serum calcium level [4]; 5 hrs
  Percent decrease of the serum calcium level from before administration: 0.9%
Serum calcium level [4]; versus the comparative composition
  absorption of calcitonin from the nasal composition: better
[5]; 1 hour
  Primary irritation score, Conjunctiva: 2.0
  Primary irritation score, Cornea: 0
  Primary irritation score, Iris: 0
  Primary irritation score, Total: 2.0
[5]; 3 hours
  Primary irritation score, Conjunctiva: 2.0
  Primary irritation score, Cornea: 0
  Primary irritation score, Iris: 0
  Primary irritation score, Total: 2.0
[5]; 6 hours
  Primary irritation score, Conjunctiva: 1.3
  Primary irritation score, Cornea: 0
  Primary irritation score, Iris: 0
  Primary irritation score, Total: 1.3
[5]; 24 hours
  Primary irritation score, Conjunctiva: 0
  Primary irritation score, Cornea: 0
  Primary irritation score, Iris: 0
  Primary irritation score, Total: 0
[5]; 48 hours
  Primary irritation score, Conjunctiva: 0
  Primary irritation score, Cornea: 0
  Primary irritation score, Iris: 0
  Primary irritation score, Total: 0
[5]; 72 hours
  Primary irritation score, Conjunctiva: 0
  Primary irritation score, Cornea: 0
  Primary irritation score, Iris: 0
  Primary irritation score, Total: 0
[5]; 96 hours
  Primary irritation score, Conjunctiva: 0
  Primary irritation score, Cornea: 0
  Primary irritation score, Iris: 0
  Primary irritation score, Total: 0
[5]; 168 hours
  Primary irritation score, Conjunctiva: 0
  Primary irritation score, Cornea: 0
  Primary irritation score, Iris: 0
  Primary irritation score, Total: 0

## CCCCCCCCCCCCCCCCCC(=O)OCC(O)COC(=O)[C@@H]1CCC(=O)N1 (stereo partly drawn) [Compound (173), 2-hydroxy-3-octadecanoyloxy-1-pyroglutamyloxypropane]
Carrageenan edema; 3 hrs
  Percentage inhibition vs. control: 15.3%
Carrageenan edema; 5 hrs
  Percentage inhibition vs. control: 32.3%
Carrageenan edema; 6 hrs
  Percentage inhibition vs. control: 33.4%
Serum calcium level [2]
  absorption of calcitonin from the suppository: better
Blood glucose level; 30 min
  Percent decrease of the blood glucose level from that before the administration: 29.4%
Blood glucose level; 1 hr
  Percent decrease of the blood glucose level from that before the administration: 33.3%
Blood glucose level; 2 hrs
  Percent decrease of the blood glucose level from that before the administration: 18.6%
Blood glucose level; 3 hrs
  Percent decrease of the blood glucose level from that before the administration: 3.7%
Blood glucose level
  absorption of insulin from the suppository: better
